# Where two headings read alike, the source gives them in different places.
# Assays:
# [1] = system: 3xTg-AD mice; test: Morris Water Maze in 3xTg-AD mice; format: in vivo, mouse; conditions: 2 months; for Morris Water Maze crosses over former platform location, retention testing / Morris Water Maze latency, retention testing: 3xTg-AD mice, 5 mg/kg/day
# Experimental: 3xTg-AD mice of approximately one year of age were treated for 2 months with ST101. An average dose of 5 mg/kg/day was administered in drinking water (calculated dose, based on mean water consumption). Behavioral effects were tested by assessing performance on the Morris Water Maze. Biochemical effects were examined by measuring brain content of Aβ and APP by ELISA and Western Blot.
# Behavioral Effects: Performance of 3xTg-AD Mice in the Morris Water Maze (MWM), adapted from Roozendaal et al., Proc. Natl. Acad. Sci. U.S.A. 100: 1328-1333 (2003).
# The MWM tests both spatial memory (i.e. hippocampus dependent) and cued learning (i.e. non-hippocampal) in rodents. The maze is a circular tank filled with opaque water. Mice are placed in the water and must swim to find and escape onto a platform submerged 1.5 cm beneath the surface of the water. The time (in seconds) required to find the platform is recorded. Animals rely on visual cues in the room containing the tank in order to find the platform on successive challenges. Training was conducted daily for seven consecutive days.
# Retention of training was assessed twice, 24 and 72 hours after the final training trial. Animals were subjected to a 60-second free swim in the tank with the platform removed. Parameters measured included (1) latency: time required to reach the former platform location and (2) crosses: the number of times the animal swam across the former platform location.
# [2] = system: sAPP-beta; test: Western blot of sAPP-beta in 3xTg-AD mouse brain; format: in vivo; conditions: 3xTg-AD mice ~14.5 months old, 5 mg/kg/day in drinking water, 2 months as printed
# Experimental: FIG. 10B describes a reduction of fragment C99. C99 is created by BACE cleavage which leads to release of soluble APP, specifically sAPP-beta. […] The Western blot was obtained using an sAPP-beta specific antibody in brain extracts from ST101 treated 3×TG-AD mice (S) versus control mice (C). Animals were approximately 14.5 months old at sacrifice after 2 months of treatment with ST101 at 5 mg/kg/day in drinking water.
# [3] = system: BACE1; test: Western blot of BACE in 3xTg-AD mouse brain; format: in vivo; conditions: 3xTg-AD mice ~12 months old, 5 mg/kg/day, 2 months
# Experimental: (§1) APP C-terminal fragments C99 and C83 are created by beta-secretase and alpha-secretase cleavage respectively. The reduction of both C99 and C83 induced by ST101 could therefore be due to reduction or inhibition of secretases. This hypothesis was tested using Western blots of brain extracts from 3xTg-AD mice from the initial experiment in 12-month-old animals treated with ST101 for 2 months. The only beta-secretase is BACE1 and the constitutive alpha-secretase is ADAM10.
# (§2) Western blots were probed with antibodies against BACE1 and ADAM10. FIG. 11A is a series of Western blots depicting levels of proADAM10, ADAM10, proBACE, BACE, Presenilinl and APP-CFTs in brain extracts from ST101 treated 3×TG-AD mice (S) versus control mice (C). C: control brain extract. S: ST101-treated brain extract. Animals were approximately 12 months old at sacrifice after 2 months of treatment with ST101 at 5 mg/kg/day.
# [4] = system: ADAM10; test: Western blot of ADAM10 in 3xTg-AD mouse brain; format: in vivo; conditions: 3xTg-AD mice ~12 months old, 5 mg/kg/day, 2 months
# Experimental: as §1, §2
# [5] = system: ubiquitylated proteins; test: Anti-ubiquitin Western blot of 3xTg-AD mouse brain; format: in vivo
# Experimental: Brain extracts from 12-month-old 3xTg-AD mice that had been treated with ST101 (S) at 5/mg/kg/day in drinking water over 2 months were analyzed in Western blots using an anti-ubiquitin antibody (Dako no. Z0448). […] The control (C) samples show a typical high molecular weight “smear” representing a mixture of ubiquitylated proteins.
# [6] = system: Aβ1-40; test: Aβ in cynomolgus monkey brain after six-month chronic toxicity study; format: in vivo; conditions: juvenile cynomolgus monkeys, 10 mg/kg/day by naso-gastric tube, 6 months
# Experimental: Brain samples from cynomolgus monkeys were obtained at the conclusion of a six-month chronic toxicity study. The cynomolgus monkeys used in this study were juveniles of less than 4 years of age. ST101 was administered daily for 6 months by naso-gastric tube at 10 mg/kg/day (n=8 per group). Data was generated from 8 treated and 8 control animals. Levels of Aβ1-40 are shown in FIG. 9, which is a bar graph that depicts the effect of ST 101 on Aβ in brain tissue from cynomolgus monkeys. FIG. 9 depicts the amount of levels of Aβ1-40 in monkeys treated with ST 101, relative to control monkeys.
# [7] = system: Aβ42; test: Sandwich ELISA of Aβ42 in cynomolgus monkey hippocampal lysates, 9-month study; format: in vivo; conditions: male cynomolgus monkeys, 9 months oral
# Experimental: Male cynomolgus monkeys were treated for 9 months with 0, 10, 30 or 100 mg/kg/day ST101 with once daily oral drug administration. Hippocampal brain samples were analyzed in Western blots and ELISAs for APP fragments and Aβ. […] Reductions in a ˜55-kDa fragment were also seen with treatment in these groups. Black outlines depict image level enhancement in Adobe Photoshop CS4, to better visualize weak signals. […] However, long exposures reveal the presence of the 17-kDa APP fragment only in treated monkeys (antibody CT20, Calbiochem). This fragment was not detected in either the 30 or 10 mg/kg/day ST101 groups. Error bars indicate SEM (standard error of the mean) and * indicates statistical significance versus control (p<0.05). (S: ST101-treated animals, versus C: control animals).
# [8] = system: beta-tubulin; test: Western blot of beta-tubulin in cynomolgus monkey hippocampus; format: in vivo; conditions: cynomolgus monkeys of Example 19, hippocampal brain samples
# Excerpt: The effects on tubulin were confirmed in the group of cynomolgus monkeys described in example 19.
# [9] = system: proteasome; test: Western blot of proteasome subunits in brain extracts; format: in vivo, mouse; conditions: 12-month-old 3xTg-AD mice, 5 mg/kg/day, 2 months
# Experimental: Brain extracts from 12-month-old 3xTg-AD mice (described in Example 15) that had been treated with ST101 at 5/mg/kg/day in drinking water over 2 months were analyzed in Western blots using an anti-proteasome alpha-subunit antibody.
# [10] = system: acetylcholine (ACh) and dopamine; test: Acetylcholine and dopamine release and extracellular concentrations
# [11] = system: SAM-P8 mice; conditions: vs control mice, cited from earlier work
smiles,measurement,setting,value
"O=C1N=C2C=CC=CN2C12Cc1ccccc1C2 [ST101, spiro(imidazo[1,2-a]pyridin-2(3H)-one-3,2′-indan)]",Morris Water Maze latency during training,"[1]; 3xTg-AD mice ~1 year old, 5 mg/kg/day in drinking water, successive days of 7-day training, vs controls",greater reductions in latency
same,"Morris Water Maze crosses over former platform location, retention testing",[1]; 24 hours after final training,increases in crosses
same,"Morris Water Maze latency, retention testing",[1]; 24 hours after final training,reductions in latency
same,"Morris Water Maze crosses over former platform location, retention testing",[1]; 72 hours after final training,increases in crosses
same,"Morris Water Maze latency, retention testing",[1]; 72 hours after final training,reductions in latency
same,sAPP-beta,[2],concomitant reduction
same,BACE protein level,[3],profound reduction
same,Pro-BACE protein level,[3],not significantly affected
same,ADAM-10 protein level,[4],not significantly affected
same,pro-ADAM10 protein level,[4],profound reduction
same,ubiquitylated proteins,"[5]; 3xTg-AD mice 12 months old, 5 mg/kg/day in drinking water, 2 months",profound reduction
same,monomeric ubiquitin concentrations,"[5]; 3xTg-AD mice 12 months old, 5 mg/kg/day, 2 months, data not shown",largely unaffected
same,ubiquitylated proteins,"[5]; 3xTg-AD mice 14.5 months old, 5 mg/kg/day, ~2.5 months",significant reduction
same,Aβ1-40 levels in brain,[6],reduction of Aβ1-40 in animals treated with ST101 that did not reach statistical significance
same,Aβ42 in hippocampal lysates,[7]; 10 mg/kg/day,significant increases
same,Aβ42 in hippocampal lysates,[7]; 30 mg/kg/day,significant decreases
same,Aβ42 in hippocampal lysates,[7]; 100 mg/kg/day,significant decreases
same,beta-tubulin degradation products,[8],increase
same,concentration of proteasome alpha subunits,[9],No difference is apparent
same,high molecular weight bands reactive with proteasome alpha-subunit antibody,[9],clear decrease
same,proteasome subunit beta 2i,[9],did not reveal changes
same,proteasome subunit beta 5i,[9],did not reveal changes
same,nicotine-stimulated release of acetylcholine (ACh),[10],potentiates
same,extracellular ACh concentrations,[10]; cerebral cortex,increases
same,extracellular concentration of ACh,[10]; hippocampus,increases
same,extracellular concentration of dopamine,[10]; hippocampus,increases
same,senescence scores,[11]; 16 weeks of treatment,significant improvement
same,senescence scores,[11]; 32 weeks of treatment,significant improvement

# — US20100298348A1, “Method of Decreasing Ubiquitylated Protein Levels” (priority 2009, published 2010)
